Tested on: MSCs
Assay: Whole genome expression analysis (Illumina microarray) of treated MSCs
Format: cell-based, Human
Protocol: MSCs were seeded in T25 flasks at 5000 cells/cm^2 and allowed to attach overnight in proliferation medium. […] After 48 hours, RNA was isolated as described above. From 500 ng of RNA, cRNA was synthesized using the Illumina TotalPrep RNA amplification Kit (Ambion), according to the manufacturer's protocol and the quality of RNA and cRNA was verified on a Bioanalyzer 2100 (Agilent). Microarrays were performed using Illumina HT-12 v4 expression Beadchips, according to the manufacturer's protocol. Briefly, 750 ng of cRNA was hybridized on the array overnight after which the array was washed and blocked. Then, by addition of streptavidin Cy-3 a fluorescent signal was developed. Arrays were scanned on an Illumina iScan reader and raw intensity values were background corrected in GenomeStudio (Illumina). Further data processing and statistical testing were performed with R and Bioconductor statistical software (www.bioconductor.org), using package lumi. Raw intensity values were transformed using variance stabilization and a quantile normalization was performed. A linear modelling approach with empirical Bayesian methods, as implemented in Limma package (54), was applied for differential expression analysis of the resulting probe-level expression values. A gene list, containing only those genes with an absolute 1.5-fold change between different treatments, was uploaded to Ingenuity Pathway Analysis (IPA) software and used for core analysis. Pathways or networks with a p-value of 0.05 were considered statistically significant.

Q: What does the source list for `c1cnc2c(c1)ccc1cccnc12` [PHE, 1, 10-phenanthroline]?
A: logFC(D142_PHE - D142_BAS) IL6 (ProbeID ILMN_1699651): -2,31; logFC(D142_PHE - D142_BAS) RRAGD (ProbeID ILMN_1699772): 3,13; logFC(D142_PHE - D142_BAS) TSPAN18 (ProbeID ILMN_1699980): -2,03; logFC(D142_PHE - D142_BAS) QPRT (ProbeID ILMN_1700268, PHE vs BAS): -2,59; logFC(D142_PHE - D142_BAS) LPAR1 (ProbeID ILMN_1701441, PHE vs BAS): -2,35; logFC(D142_PHE - D142_BAS) SULF1 (ProbeID ILMN_1702363, PHE vs BAS): -2,90; logFC(D142_PHE - D142_BAS) AXUD1 (ProbeID ILMN_1703123): 2,51; logFC(D142_PHE - D142_BAS) FEM1C (ProbeID ILMN_1703330): 2,53; logFC(D142_PHE - D142_BAS) FHL3 (ProbeID ILMN_1703558): -2,34; logFC(D142_PHE - D142_BAS) TNFRSF19 (ProbeID ILMN_1704154): -2,24; logFC(D142_PHE - D142_BAS) SLC6A10P (ProbeID ILMN_1704446): 3,23; logFC(D142_PHE - D142_BAS) PTGR1 (ProbeID ILMN_1704531): 2,56; logFC(D142_PHE - D142_BAS) TGM2 (ProbeID ILMN_1705750, PHE vs BAS): -2,98; logFC(D142_PHE - D142_BAS) DSE (ProbeID ILMN_1706498): -2,19; logFC(D142_PHE - D142_BAS) TFPI (ProbeID ILMN_1707124): 2,04; logFC(D142_PHE - D142_BAS) LRIG1 (ProbeID ILMN_1707342): 2,82; logFC(D142_PHE - D142_BAS) ANGPTL4 (ProbeID ILMN_1707727): 7,28; logFC(D142_PHE - D142_BAS) CNN2 (ProbeID ILMN_1708486): -2,15; logFC(D142_PHE - D142_BAS) ACAT2 (ProbeID ILMN_1708672): -2,03; logFC(D142_PHE - D142_BAS) ADM (ProbeID ILMN_1708934): 2,48; logFC(D142_PHE - D142_BAS) C9orf46 (ProbeID ILMN_1709043): -2,08; logFC(D142_PHE - D142_BAS) EMILIN1 (ProbeID ILMN_1711439): -2,30; logFC(D142_PHE - D142_BAS) FAM20C (ProbeID ILMN_1712684): -2,12; logFC(D142_PHE - D142_BAS) WISP1 (ProbeID ILMN_1713499): -2,11; logFC(D142_PHE - D142_BAS) UBE2C (ProbeID ILMN_1714730): -2,16; logFC(D142_PHE - D142_BAS) LOC346887 (ProbeID ILMN_1714741): 2,46; logFC(D142_PHE - D142_BAS) NNMT (ProbeID ILMN_1715508, PHE vs BAS): -2,62; logFC(D142_PHE - D142_BAS) ENAH (ProbeID ILMN_1716552): -2,13; logFC(D142_PHE - D142_BAS) NGF (ProbeID ILMN_1716608): 2,06; logFC(D142_PHE - D142_BAS) TPM1 (ProbeID ILMN_1716687): -2,28; logFC(D142_PHE - D142_BAS) MYOM2 (ProbeID ILMN_1716733): 2,05; logFC(D142_PHE - D142_BAS) TXNRD1 (ProbeID ILMN_1717056): 2,75; logFC(D142_PHE - D142_BAS) C5orf46 (ProbeID ILMN_1718866): 3,15; logFC(D142_PHE - D142_BAS) BNIP3L (ProbeID ILMN_1718961): 2,88; logFC(D142_PHE - D142_BAS) FH (ProbeID ILMN_1719392, PHE vs BAS): -2,67; logFC(D142_PHE - D142_BAS) TNC (ProbeID ILMN_1719759, PHE vs BAS): -3,17; logFC(D142_PHE - D142_BAS) SLC7A5 (ProbeID ILMN_1720373): 2,69; logFC(D142_PHE - D142_BAS) CA12 (ProbeID ILMN_1720998): 2,41; logFC(D142_PHE - D142_BAS) JMJD1A (ProbeID ILMN_1722532): 3,45; logFC(D142_PHE - D142_BAS) HK2 (ProbeID ILMN_1723486): 2,90; logFC(D142_PHE - D142_BAS) IFI44L (ProbeID ILMN_1723912): -2,15; logFC(D142_PHE - D142_BAS) BNIP3 (ProbeID ILMN_1724658): 3,47; logFC(D142_PHE - D142_BAS) RIOK3 (ProbeID ILMN_1724700): 2,40; logFC(D142_PHE - D142_BAS) CTHRC1 (ProbeID ILMN_1725090, PHE vs BAS): -2,95; logFC(D142_PHE - D142_BAS) CA9 (ProbeID ILMN_1725139): 3,69; logFC(D142_PHE - D142_BAS) GSTK1 (ProbeID ILMN_1725241): -2,02; logFC(D142_PHE - D142_BAS) SLC3A2 (ProbeID ILMN_1726456): 2,24; logFC(D142_PHE - D142_BAS) CD248 (ProbeID ILMN_1726589): -2,13; logFC(D142_PHE - D142_BAS) OLFML3 (ProbeID ILMN_1727532, PHE vs BAS): -3,25; logFC(D142_PHE - D142_BAS) AKR1A1 (ProbeID ILMN_1728047): -2,21; logFC(D142_PHE - D142_BAS) PRC1 (ProbeID ILMN_1728934, PHE vs BAS): -2,53; logFC(D142_PHE - D142_BAS) COL5A2 (ProbeID ILMN_1729117): -2,21; logFC(D142_PHE - D142_BAS) C1QTNF6 (ProbeID ILMN_1729288): -2,08; logFC(D142_PHE - D142_BAS) LEPR (ProbeID ILMN_1731966): -2,03; logFC(D142_PHE - D142_BAS) SHB (ProbeID ILMN_1732612): 2,06; logFC(D142_PHE - D142_BAS) STEAP1 (ProbeID ILMN_1733094, PHE vs BAS): -2,54; logFC(D142_PHE - D142_BAS) RASSF7 (ProbeID ILMN_1733110): 2,83; logFC(D142_PHE - D142_BAS) COL12A1 (ProbeID ILMN_1733756, PHE vs BAS): -3,95; logFC(D142_PHE - D142_BAS) PPP1R3C (ProbeID ILMN_1736670): 2,44; logFC(D142_PHE - D142_BAS) TMEM119 (ProbeID ILMN_1738116, PHE vs BAS): -4,96; logFC(D142_PHE - D142_BAS) SLC1A3 (ProbeID ILMN_1738552): -2,18; logFC(D142_PHE - D142_BAS) PLAT (ProbeID ILMN_1738742): 2,16; logFC(D142_PHE - D142_BAS) PRRX1 (ProbeID ILMN_1739496, PHE vs BAS): -2,36; logFC(D142_PHE - D142_BAS) FAM117B (ProbeID ILMN_1739942): 2,48; logFC(D142_PHE - D142_BAS) CHSY3 (ProbeID ILMN_1740407, PHE vs BAS): -2,57; logFC(D142_PHE - D142_BAS) ALDOA (ProbeID ILMN_1741148): 2,28; logFC(D142_PHE - D142_BAS) RFX5 (ProbeID ILMN_1741200): -2,04; logFC(D142_PHE - D142_BAS) PRICKLE1 (ProbeID ILMN_1741356, PHE vs BAS): -2,37; logFC(D142_PHE - D142_BAS) C1QTNF5 (ProbeID ILMN_1744487, PHE vs BAS): -2,59; logFC(D142_PHE - D142_BAS) ERO1L (ProbeID ILMN_1744963): 3,84; logFC(D142_PHE - D142_BAS) CEP55 (ProbeID ILMN_1747016): -2,01; logFC(D142_PHE - D142_BAS) PSMB8 (ProbeID ILMN_1747195): -2,24; logFC(D142_PHE - D142_BAS) CDKN2D (ProbeID ILMN_1748883): 2,14; logFC(D142_PHE - D142_BAS) MZF1 (ProbeID ILMN_1749838): 2,45; logFC(D142_PHE - D142_BAS) EGLN1 (ProbeID ILMN_1749892): 2,72; logFC(D142_PHE - D142_BAS) IGFBP5 (ProbeID ILMN_1750324): 2,34; logFC(D142_PHE - D142_BAS) STXBP6 (ProbeID ILMN_1750912): 2,42; logFC(D142_PHE - D142_BAS) HIST1H4H (ProbeID ILMN_1751120): 2,86; logFC(D142_PHE - D142_BAS) C20orf46 (ProbeID ILMN_1751228): 2,17; logFC(D142_PHE - D142_BAS) P2RY11 (ProbeID ILMN_1752226): 2,23; logFC(D142_PHE - D142_BAS) FAM13A (ProbeID ILMN_1752510): 3,25; logFC(D142_PHE - D142_BAS) LMCD1 (ProbeID ILMN_1754969, PHE vs BAS): -2,67; logFC(D142_PHE - D142_BAS) PGK1 (ProbeID ILMN_1755749): 2,85; logFC(D142_PHE - D142_BAS) ALDOC (ProbeID ILMN_1755974): 2,83; logFC(D142_PHE - D142_BAS) ANKRD37 (ProbeID ILMN_1756417): 4,25; logFC(D142_PHE - D142_BAS) COQ2 (ProbeID ILMN_1756572, PHE vs BAS): -2,49; logFC(D142_PHE - D142_BAS) NDUFA4L2 (ProbeID ILMN_1756573): 5,61; logFC(D142_PHE - D142_BAS) MUC1 (ProbeID ILMN_1756992): 2,56; logFC(D142_PHE - D142_BAS) HCFC1R1 (ProbeID ILMN_1757877): 2,05; logFC(D142_PHE - D142_BAS) STC1 (ProbeID ILMN_1758164): 4,35; logFC(D142_PHE - D142_BAS) HIST1H2BD (ProbeID ILMN_1758623): 3,29; logFC(D142_PHE - D142_BAS) IDS (ProbeID ILMN_1758626): 2,05; logFC(D142_PHE - D142_BAS) FAM107B (ProbeID ILMN_1758672): 2,44
